Here are results for 22 compounds from ChEMBL document CHEMBL3877266, “Repurposing N,N'-bis-(arylamidino)-1,4-piperazinedicarboxamidines: An unexpected class of potent inhibitors of cholinesterases” (Eur J Med Chem, 2017).

For experiment [1], the target named is T1, Cholinesterase (Equus caballus, UniProt P81908). In words: Non-competitive inhibition of equine serum butyrylcholinesterase in presence of varying butyrylthiocholine iodide substrate level preincubated for 20 mins followed by substrate addition measured every 1 min for 30 mins.
T1 sequence (P81908 whole entry): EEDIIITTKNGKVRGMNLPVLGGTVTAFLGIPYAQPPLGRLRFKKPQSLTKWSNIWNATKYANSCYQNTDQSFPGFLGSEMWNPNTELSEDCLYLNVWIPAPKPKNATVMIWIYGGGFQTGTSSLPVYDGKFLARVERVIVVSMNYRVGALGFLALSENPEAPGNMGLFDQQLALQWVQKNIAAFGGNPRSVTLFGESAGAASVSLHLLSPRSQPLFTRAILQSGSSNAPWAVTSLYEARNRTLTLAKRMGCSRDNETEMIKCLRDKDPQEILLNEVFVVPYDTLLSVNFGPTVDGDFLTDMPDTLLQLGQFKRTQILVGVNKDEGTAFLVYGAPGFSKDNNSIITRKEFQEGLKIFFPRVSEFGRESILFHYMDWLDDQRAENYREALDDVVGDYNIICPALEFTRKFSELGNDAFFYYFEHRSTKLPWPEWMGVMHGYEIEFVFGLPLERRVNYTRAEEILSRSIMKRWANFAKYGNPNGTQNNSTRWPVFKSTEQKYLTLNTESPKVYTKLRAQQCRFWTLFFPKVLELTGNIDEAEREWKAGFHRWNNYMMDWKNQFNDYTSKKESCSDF
In experiment [2] the target is T1, Cholinesterase. Briefly: Competitive inhibition of equine serum butyrylcholinesterase in presence of varying butyrylthiocholine iodide substrate level preincubated for 20 mins followed by substrate addition measured every 1 min for 30 mins.
The target in experiment [3] is T2, Acetylcholinesterase (Electrophorus electricus, UniProt O42275). Briefly: Competitive inhibition of Electrophorus electricus acetylcholinesterase in presence of varying acetylthiocholine iodide substrate level preincubated for 20 mins followed by substrate addition measured every 1 min for 30 mins.
T2 sequence (O42275 whole entry): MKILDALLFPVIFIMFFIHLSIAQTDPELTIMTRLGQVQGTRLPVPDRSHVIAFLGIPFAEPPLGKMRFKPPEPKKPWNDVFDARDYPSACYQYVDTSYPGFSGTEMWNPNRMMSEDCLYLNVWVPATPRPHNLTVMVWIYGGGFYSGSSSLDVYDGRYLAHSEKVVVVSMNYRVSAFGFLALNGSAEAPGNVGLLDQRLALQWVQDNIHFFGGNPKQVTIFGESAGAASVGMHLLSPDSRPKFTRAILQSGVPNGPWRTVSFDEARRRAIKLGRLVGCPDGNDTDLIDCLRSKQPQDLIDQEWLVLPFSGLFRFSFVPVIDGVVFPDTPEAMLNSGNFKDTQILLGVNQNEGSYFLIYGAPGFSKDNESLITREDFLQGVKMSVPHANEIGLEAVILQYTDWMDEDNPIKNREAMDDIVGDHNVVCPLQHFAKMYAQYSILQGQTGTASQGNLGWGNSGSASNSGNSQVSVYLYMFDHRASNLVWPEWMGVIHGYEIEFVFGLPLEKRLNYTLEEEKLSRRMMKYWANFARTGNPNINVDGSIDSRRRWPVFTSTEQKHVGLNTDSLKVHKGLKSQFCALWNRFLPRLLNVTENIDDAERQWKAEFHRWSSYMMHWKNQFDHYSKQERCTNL
The target of experiment [4] is T2, Acetylcholinesterase. Briefly: Non-competitive inhibition of Electrophorus electricus acetylcholinesterase in presence of varying acetylthiocholine iodide substrate level preincubated for 20 mins followed by substrate addition measured every 1 min for 30 mins.

By Ki is commonly meant a dissociation constant, usually derived from enzyme kinetics or from competition with a known ligand.

For `N=C(NC(=N)N1CCN(C(=N)NC(=N)Nc2ccc(Br)cc2)CC1)Nc1ccc(Br)cc1`, the Ki is 3.84 µM on Cholinesterase [1], 0.61 µM at Cholinesterase [2], 3.43 µM on Acetylcholinesterase [3] and 35.5 µM at Acetylcholinesterase [4].

With `N=C(NC(=N)N1CCN(C(=N)NC(=N)Nc2ccccc2Br)CC1)Nc1ccccc1Br`, the Ki at Cholinesterase [1] worked out at 12.3 µM; on Cholinesterase [2], 1.25 µM; on Acetylcholinesterase [3], 4.19 µM; at Acetylcholinesterase [4], 40.5 µM.

Turning to `N=C(NC(=N)N1CCN(C(=N)NC(=N)Nc2ccc(I)cc2)CC1)Nc1ccc(I)cc1`, the Ki on Cholinesterase [1] amounted to 2.74 µM; on Cholinesterase [2], 0.31 µM; at Acetylcholinesterase [3], 5.08 µM; on Acetylcholinesterase [4], 49.1 µM.

As for `N=C(NC(=N)N1CCN(C(=N)NC(=N)Nc2ccccc2I)CC1)Nc1ccccc1I`, the Ki at Cholinesterase [1] was 11.2 µM; at Cholinesterase [2] it was 1.96 µM; at Acetylcholinesterase [3] it was 1.56 µM; at Acetylcholinesterase [4] it was above 100 µM.

As to `N=C(NC(=N)N1CCN(C(=N)NC(=N)Nc2ccc([N+](=O)[O-])cc2)CC1)Nc1ccc([N+](=O)[O-])cc1`, the inhibition constant Ki at Cholinesterase [1] amounted to 22.9 µM; at Cholinesterase [2] it was 10.8 µM; at Acetylcholinesterase [3], 0.52 µM; on Acetylcholinesterase [4], 2.96 µM.

On to `N=C(NC(=N)N1CCN(C(=N)NC(=N)Nc2cccc(Br)c2)CC1)Nc1cccc(Br)c1`, for which the Ki on Cholinesterase [1] was 10.3 µM; at Cholinesterase [2] it was 0.23 µM; at Acetylcholinesterase [3], 6.17 µM; at Acetylcholinesterase [4], 25.4 µM.

In the case of `CC(C)(C)c1ccc(NC(=N)NC(=N)N2CCN(C(=N)NC(=N)Nc3ccc(C(C)(C)C)cc3)CC2)cc1`, the Ki stood at 4.41 µM at Cholinesterase [1], 0.12 µM at Cholinesterase [2], 1.41 µM on Acetylcholinesterase [3] and 21.8 µM at Acetylcholinesterase [4].

With `N=C(NC(=N)N1CCN(C(=N)NC(=N)Nc2cccc(F)c2)CC1)Nc1cccc(F)c1`, the Ki on Cholinesterase [1] is 32.9 µM; on Cholinesterase [2], 1.7 µM; at Acetylcholinesterase [3] it was 14.9 µM; on Acetylcholinesterase [4], 104 µM.

For the compound `COc1ccc(NC(=N)NC(=N)N2CCN(C(=N)NC(=N)Nc3ccc(OC)cc3)CC2)cc1`, the Ki on Cholinesterase [1] was determined as 35.1 µM; on Cholinesterase [2], 1.78 µM; on Acetylcholinesterase [3], 25.6 µM; on Acetylcholinesterase [4], 88.9 µM.

In the case of `N=C(NC(=N)N1CCN(C(=N)NC(=N)Nc2cccc(I)c2)CC1)Nc1cccc(I)c1`, the Ki was 3.04 µM at Cholinesterase [1], 0.21 µM at Cholinesterase [2], 2.79 µM on Acetylcholinesterase [3] and 19.9 µM on Acetylcholinesterase [4].

Turning to `N=C(NC(=N)N1CCN(C(=N)NC(=N)Nc2ccc(OC(F)(F)F)cc2)CC1)Nc1ccc(OC(F)(F)F)cc1`, the Ki is above 20 µM at Cholinesterase [1], 3.34 µM on Cholinesterase [2], 19.8 µM on Acetylcholinesterase [3] and 62.2 µM on Acetylcholinesterase [4].

`N=C(NC(=N)N1CCN(C(=N)NC(=N)Nc2ccc(F)cc2)CC1)Nc1ccc(F)cc1`: the Ki is 15.2 µM at Cholinesterase [1], 1.18 µM at Cholinesterase [2], 7.77 µM at Acetylcholinesterase [3] and 16.2 µM at Acetylcholinesterase [4].

Take `COc1ccccc1NC(=N)NC(=N)N1CCN(C(=N)NC(=N)Nc2ccccc2OC)CC1`: the Ki was 34 µM on Cholinesterase [1], 5.2 µM on Cholinesterase [2], 4.34 µM at Acetylcholinesterase [3] and 13.7 µM at Acetylcholinesterase [4].

In the case of `Cc1ccc(NC(=N)NC(=N)N2CCN(C(=N)NC(=N)Nc3ccc(C)cc3)CC2)cc1`, the Ki at Cholinesterase [1] is 11.8 µM; on Cholinesterase [2], 0.45 µM; on Acetylcholinesterase [3] it was 9.25 µM; at Acetylcholinesterase [4], above 100 µM.

`N=C(NC(=N)N1CCN(C(=N)NC(=N)Nc2cccc(Cl)c2)CC1)Nc1cccc(Cl)c1`: the Ki at Cholinesterase [1] is 12.2 µM; at Cholinesterase [2], 0.74 µM; on Acetylcholinesterase [3], 4.45 µM; at Acetylcholinesterase [4] it was above 30 µM.

For `COc1cc(NC(=N)NC(=N)N2CCN(C(=N)NC(=N)Nc3cc(OC)c(OC)c(OC)c3)CC2)cc(OC)c1OC`, the Ki was found to be 9.03 µM on Cholinesterase [2], 7.74 µM on Acetylcholinesterase [3] and 41.2 µM on Acetylcholinesterase [4].

In the case of `N=C(NC(=N)N1CCN(C(=N)NC(=N)Nc2ccccc2)CC1)Nc1ccccc1`, the inhibition constant (Ki) on Cholinesterase [1] was above 40 µM; on Cholinesterase [2], 0.95 µM; on Acetylcholinesterase [3], 13.5 µM; at Acetylcholinesterase [4], 69.2 µM.

Consider `N=C(NC(=N)N1CCN(C(=N)NC(=N)Nc2ccccc2F)CC1)Nc1ccccc1F`, for which the Ki at Cholinesterase [1] was found to be 25.5 µM; at Cholinesterase [2] it was 6.82 µM; on Acetylcholinesterase [3], 14.9 µM; at Acetylcholinesterase [4], 58.6 µM.

Regarding `N=C(NC(=N)N1CCN(C(=N)NC(=N)Nc2ccc(Cl)cc2Cl)CC1)Nc1ccc(Cl)cc1Cl`, the inhibitory constant (Ki) came out at 7.51 µM at Cholinesterase [1], 0.41 µM at Cholinesterase [2], 9.34 µM at Acetylcholinesterase [3] and 75.3 µM on Acetylcholinesterase [4].

Regarding `COc1cccc(NC(=N)NC(=N)N2CCN(C(=N)NC(=N)Nc3cccc(OC)c3)CC2)c1`, the Ki amounted to 54.8 µM on Cholinesterase [1], 3.02 µM on Cholinesterase [2], 10.4 µM at Acetylcholinesterase [3] and 45.2 µM at Acetylcholinesterase [4].

For the compound `N=C(NC(=N)N1CCN(C(=N)NC(=N)Nc2ccccc2Cl)CC1)Nc1ccccc1Cl`, the Ki is 12.7 µM at Cholinesterase [1], 1.85 µM at Cholinesterase [2], 6.11 µM on Acetylcholinesterase [3] and 66.7 µM on Acetylcholinesterase [4].

For the compound `N=C(NC(=N)N1CCN(C(=N)NC(=N)Nc2ccc(Cl)cc2)CC1)Nc1ccc(Cl)cc1` [PICLOXYDINE], the Ki at Cholinesterase [1] is 9.37 µM; on Cholinesterase [2] it was 0.62 µM; at Acetylcholinesterase [3], 22 µM; at Acetylcholinesterase [4] it was 28.3 µM.
